Measured values: patent US20120034193A1, “TREATMENT OF NEUROTROPHIC FACTOR MEDIATED DISORDERS” (priority 2009, published 2012)

Assays:
trkB mRNA = trkB mRNA expression in rat cortical neurones under basal conditions (rt RT-PCR); type: cell-based; conditions: 30 nM
Protocol: Rat cortical neurones were cultured by modification of a method previously described (Singer, et al., Neuroscience Letters, 1996, 212, pp. 13-16). Twelve days after the start of culturing, sarsasapogenin (30 nM), smilagenin (30 nM), 4-methylcatechol (0.5 mM), an inducer of NGF and BDNF release (Saporito et al., Experimental Neurology., 1993, 123, pp. 295-302; Nitta et al., Journal of Pharmacology and Experimental Therapeutics, 1999, 291, pp. 1276-1283) or vehicle (dimethyl sulfoxide, DMSO, 0.25%) were added for 1, 3 or 6 h. After incubation the total messenger ribonucleic acid (mRNA) was quantified using real time reverse transcription-polymerase chain reaction (rt RT-PCR).

Rat cortical neurones [1] = assay: Reversal of glutamate-induced damage in cortical neurones; type: cell-based; conditions: 30 nM for 24 h after glutamate 100 μM 10 min
Protocol: The rat cortical neurones were prepared as detailed above. On day 13, cultures were exposed to glutamate (100 μM) for 10 min at 37° C. in 5% CO2/95% air atmosphere in defined medium. Following the incubation period, the cultures were washed and maintained in fresh medium, containing sarsasapogenin, smilagenin or vehicle. Cells were cultured for a further 24 h after glutamate exposure and were then assessed for neuronal damage as detailed above.

[2] = Tissue distribution after a single oral administration, rat; type: in vivo; conditions: 30 mg/kg single oral
[3] = tested on: rat primary cortical neurones; assay: Pre-treatment against glutamate-induced damage (LDH) in cortical neurones; type: cell-based; conditions: for Neuronal survival (% of control): 24 h before and 24 h after glutamate 100 μM 10 min
Protocol: Exposure of rat primary cortical neurones to glutamate increases lactate dehydrogenase (LDH) activity measured 24 h after glutamate exposure, indicating significant neuronal damage. Rat cortical neurones were cultured by modification of a method previously described (Singer, et al., Neuroscience Letters, 1996, 212, pp. 13-16). On day 10 of culture, the medium was changed to a serum-free defined medium. On day 12, the cultures were washed and placed for 24 h in fresh medium containing test compound or vehicle (DMSO, 0.25%). On day 13 neurones were exposed to glutamate (100 μM; 10 min) at 37° C. The cultures were then washed with, and placed in, fresh medium supplemented with test compound or vehicle for a further 24 h before LDH was measured. Neuronal damage was assessed by measuring LDH activity in the media at 24 h after glutamate exposure.

[4] = tested on: rat primary cortical neurones; assay: ChAT positive neurones and neurite outgrowth after β-amyloid exposure; type: cell-based; conditions: 10 μM pre-incubation 48 h, then β-amyloid 10 μg/ml 48 h
Protocol: Rat cortical neurones were cultured by modification of a method previously described (Eckenstein and Sofroniew, Journal of Neuroscience, 1983, 3, pp. 2286-2291). On day 8, the culture medium was changed to a medium containing vehicle (DMSO, 0.5%) or smilagenin or sarsasapogenin (10 μM). On day 10, rat primary cortical neurones were exposed to β-amyloid (10 μg/ml) for 48 h at 37° C. and the concentration of BDNF in the culture medium, the number of choline acetyltransferase (ChAT) positive cells, and the neurite outgrowth was measured (smilagenin only).

Rat cortical neurones [5] = assay: Neuronal survival and neurite outgrowth of cortical neurones cultured in the absence of serum; type: cell-based; conditions: 30 nM, one day, no serum
Protocol: Rat cortical neurones were cultured following the method described above.
The test compounds were added for 24 h.
Rat cortical neurones were exposed to sarsasapogenin, smilagenin (30 nM) or vehicle (DMSO, 0.25%) in the absence FBS or FCS for one day. Cortical neurones were stained using a monoclonal antibody anti β-tubulin diluted and an anti mouse Immunoglobulin G diluted. These antibodies stained neurone cell bodies (quantifying the neuroprotective effect) and neurites (quantifying the neurotrophic effect). An epifluorecence microscope (magnification ×20) with a camera took 2 pictures per well (10 pictures per condition). Analyses of the number of cells labelled with anti β-tubulin antibodies and of the total number of cells was performed using LUCIA 6.0 software.

[6] = Tissue distribution after a single oral administration, dog; type: in vivo; conditions: 25 mg/kg single oral

C[C@H]1CC[C@@]2(OC1)O[C@H]1C[C@H]3[C@@H]4CC[C@@H]5C[C@@H](O)CC[C@]5(C)[C@H]4CC[C@]3(C)[C@H]1[C@@H]2C [Sarsasapogenin, sarsasapogenin]
trkB mRNA, % increase above control (trkB mRNA; 1 h): No increase | trkB mRNA, % increase above control (trkB mRNA; 3 h): 33% | trkB mRNA, % increase above control (trkB mRNA; 6 h): No increase | Neuronal survival (% of control) (Rat cortical neurones [1]): 103.43 ± 5.10 % of control | Concentration of compound, Brain ([2]; Rat F, 1 h): 1210 ng equivalents/g tissue | Concentration of compound, Plasma ([2]; Rat F, 1 h): 1530 ng equivalents/g tissue | Concentration of compound, Spinal cord ([2]; Rat F, 1 h): 3020 ng equivalents/g tissue | Concentration of compound, Brain ([2]; Rat F, 4 h): 3860 ng equivalents/g tissue | Concentration of compound, Plasma ([2]; Rat F, 4 h): 2050 ng equivalents/g tissue | Concentration of compound, Spinal cord ([2]; Rat F, 4 h): 3830 ng equivalents/g tissue | Concentration of compound, Brain ([2]; Rat F, 8 h): 5980 ng equivalents/g tissue | Concentration of compound, Plasma ([2]; Rat F, 8 h): 1760 ng equivalents/g tissue | Concentration of compound, Spinal cord ([2]; Rat F, 8 h): 5080 ng equivalents/g tissue | Concentration of compound, Brain ([2]; Rat F, 24 h): 2800 ng equivalents/g tissue | Concentration of compound, Plasma ([2]; Rat F, 24 h): 629 ng equivalents/g tissue | Concentration of compound, Spinal cord ([2]; Rat F, 24 h): 3290 ng equivalents/g tissue | Concentration of compound, Brain ([2]; Rat F, 168 h): 134 ng equivalents/g tissue | Concentration of compound, Plasma ([2]; Rat F, 168 h): 90 ng equivalents/g tissue | Concentration of compound, Spinal cord ([2]; Rat F, 168 h): 590 ng equivalents/g tissue | Concentration of compound, Brain ([2]; Rat M, 1 h): 1140 ng equivalents/g tissue | Concentration of compound, Plasma ([2]; Rat M, 1 h): 1690 ng equivalents/g tissue | Concentration of compound, Spinal cord ([2]; Rat M, 1 h): 1090 ng equivalents/g tissue | Concentration of compound, Brain ([2]; Rat M, 4 h): 4970 ng equivalents/g tissue | Concentration of compound, Plasma ([2]; Rat M, 4 h): 2920 ng equivalents/g tissue | Concentration of compound, Spinal cord ([2]; Rat M, 4 h): 4350 ng equivalents/g tissue | Concentration of compound, Brain ([2]; Rat M, 8 h): 6920 ng equivalents/g tissue | Concentration of compound, Plasma ([2]; Rat M, 8 h): 2970 ng equivalents/g tissue | Concentration of compound, Spinal cord ([2]; Rat M, 8 h): 6060 ng equivalents/g tissue | Concentration of compound, Brain ([2]; Rat M, 24 h): 3800 ng equivalents/g tissue | Concentration of compound, Plasma ([2]; Rat M, 24 h): 967 ng equivalents/g tissue | Concentration of compound, Spinal cord ([2]; Rat M, 24 h): 4720 ng equivalents/g tissue | Concentration of compound, Brain ([2]; Rat M, 168 h): 194 ng equivalents/g tissue | Concentration of compound, Plasma ([2]; Rat M, 168 h): 149 ng equivalents/g tissue | Concentration of compound, Spinal cord ([2]; Rat M, 168 h): 747 ng equivalents/g tissue | Neuronal survival (% of control) ([3]; 1 nM): 76.88 ± 2.79 % of control | Neuronal survival (% of control) ([3]; 3 nM): 77.23 ± 2.62 % of control | Neuronal survival (% of control) ([3]; 10 nM): 73.50 ± 3.05 % of control | Neuronal survival (% of control) ([3]; 30 nM): 78.91 ± 2.97 % of control | Neuronal survival (% of control) ([3]; 100 nM): 76.30 ± 4.15 % of control | Toxicity at the plateau of activity ([3]; nanomolar concentration, cortical neurones in vitro): without causing any toxicity | Number of ChAT positive neurones per field (% of control) [4]: 71.6 ± 3.7 % of control | Neurite outgrowth (% of control) (Rat cortical neurones [5]): 152.85 ± 10.68 % of control | Neuronal survival (% of control) (Rat cortical neurones [5]): 149.55 ± 6.22 % of control | Concentration of compound, Brain ([6]; Dog F, 4 h): 0.128 ng equivalents/g tissue | Concentration of compound, Plasma ([6]; Dog F, 4 h): 0.184 ng equivalents/g tissue | Concentration of compound, Spinal cord ([6]; Dog F, 4 h): 0.515 ng equivalents/g tissue | Concentration of compound, Brain ([6]; Dog F, 24 h): 8.64 ng equivalents/g tissue | Concentration of compound, Plasma ([6]; Dog F, 24 h): 1.79 ng equivalents/g tissue | Concentration of compound, Spinal cord ([6]; Dog F, 24 h): 5.79 ng equivalents/g tissue | Concentration of compound, Brain ([6]; Dog F, 168 h): 0.535 ng equivalents/g tissue | Concentration of compound, Plasma ([6]; Dog F, 168 h): 0.115 ng equivalents/g tissue | Concentration of compound, Spinal cord ([6]; Dog F, 168 h): 1.43 ng equivalents/g tissue | Concentration of compound, Brain ([6]; Dog M, 4 h): 1.37 ng equivalents/g tissue | Concentration of compound, Plasma ([6]; Dog M, 4 h): 0.641 ng equivalents/g tissue | Concentration of compound, Spinal cord ([6]; Dog M, 4 h): 1.13 ng equivalents/g tissue | Concentration of compound, Brain ([6]; Dog M, 24 h): 2.33 ng equivalents/g tissue | Concentration of compound, Plasma ([6]; Dog M, 24 h): 0.196 ng equivalents/g tissue | Concentration of compound, Spinal cord ([6]; Dog M, 24 h): 1.82 ng equivalents/g tissue | Concentration of compound, Brain ([6]; Dog M, 168 h): 0.605 ng equivalents/g tissue | Concentration of compound, Plasma ([6]; Dog M, 168 h): 0.309 ng equivalents/g tissue | Concentration of compound, Spinal cord ([6]; Dog M, 168 h): 1.49 ng equivalents/g tissue
